Experimental data as given in PubChem BioAssay AID256 (DTP/NCI, 2004).
Values joined by “and” are separate entries in the source; they are usually repeats but may differ in a detail not shown here. Equal values may be shown once. Toxic doses and inconclusive results are not listed. How the source made its calls: active means survival T/C of 150% or more; inactive means T/C below 125% in these data.

Tested on: CD2F1 mice, L1210 leukemia ip, survival T/C
Test: NCI In Vivo Anticancer Drug Screen. Data for tumor model L1210 Leukemia (intraperitoneal) in CD2F1 (CDF1) mice
Conditions: higher = longer survival
Summary of the method: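 Ratio T/C, where T is the treated-group value and C the vehicle-dosed control value, from mice implanted with a transplantable tumor.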

[1] = endpoint: mean survival time, dose: 100.0 mg/kg/injection, schedule: Q04DX002 (ip), vehicle: saline with Tween-80
[2] = endpoint: mean survival time, dose: 200.0 mg/kg/injection, schedule: Q04DX002 (ip), vehicle: saline with Tween-80
[3] = endpoint: mean survival time, dose: 400.0 mg/kg/injection, schedule: Q04DX002 (ip), vehicle: saline with Tween-80
[4] = endpoint: mean survival time, dose: 100.0 mg/kg/injection, schedule: Q01DX001 (ip), vehicle: saline with Tween-80
[5] = endpoint: mean survival time, dose: 200.0 mg/kg/injection, schedule: Q01DX001 (ip), vehicle: saline with Tween-80

Measured: T/C

COC(=O)C(CCl)NC(N)=O (configuration not stated)
inactive: endpoint: mean survival time, dose: 100.0 mg/kg/injection, schedule: Q01DX001 (ip), vehicle: saline 104 % of control | endpoint: mean survival time, dose: 200.0 mg/kg/injection, schedule: Q01DX001 (ip), vehicle: saline 101 % of control | endpoint: mean survival time, dose: 400.0 mg/kg/injection, schedule: Q01DX001 (ip), vehicle: saline 104 % of control

CO[C@H]1[C@H](O)[C@H](O[C@H]2CC[C@@]3(C)[C@H](CC[C@@H]4[C@@H]3CC[C@]3(C)[C@@H](C5=CC(=O)OC5)CC[C@]43O)C2)O[C@@H](C)[C@@H]1O
inactive: endpoint: mean survival time, dose: 0.5 mg/kg/injection, schedule: Q01DX001 (ip), vehicle: saline 105 % of control | endpoint: mean survival time, dose: 1.0 mg/kg/injection, schedule: Q01DX001 (ip), vehicle: saline 105 % of control | endpoint: mean survival time, dose: 2.0 mg/kg/injection, schedule: Q01DX001 (ip), vehicle: saline 108 % of control | endpoint: mean survival time, dose: 4.0 mg/kg/injection, schedule: Q01DX001 (ip), vehicle: saline 109 % of control

CCOC(=O)C(CCC(O)C#N)(CC(C)=O)C(=O)OCC (configuration not stated)
inactive: endpoint: mean survival time, dose: 75.0 mg/kg/injection, schedule: Q01DX001 (ip), vehicle: saline 100 % of control

O=[N+]([O-])CC(O)C(O)C(O)C(O)CO (configuration not stated)
inactive: endpoint: mean survival time, dose: 100.0 mg/kg/injection, schedule: Q01DX009 (ip), vehicle: saline 107 % of control | endpoint: mean survival time, dose: 200.0 mg/kg/injection, schedule: Q01DX009 (ip), vehicle: saline 112 % of control | endpoint: mean survival time, dose: 400.0 mg/kg/injection, schedule: Q01DX009 (ip), vehicle: saline 107 % of control

Oc1cc2c(cc1O)-c1[nH]ncc1CC2
inactive: [1] 115 % of control | [2] 103 % of control | [3] 98 % of control

CCCCSc1ncn(C)c1[N+](=O)[O-]
inactive: endpoint: mean survival time, dose: 50.0 mg/kg/injection, schedule: Q01DX001 (ip), vehicle: saline with Tween-80 101 % of control | [4] 103 % of control | [5] 101 % of control

O=S(=O)(Cc1ccccc1)CC(Br)CBr (configuration not stated)
inactive: endpoint: mean survival time, dose: 100.0 mg/kg/injection, schedule: Q01DX001 (ip), vehicle: Klucel (hydroxypropylcellulose) (HPC) 91 % of control | endpoint: mean survival time, dose: 200.0 mg/kg/injection, schedule: Q01DX001 (ip), vehicle: Klucel (hydroxypropylcellulose) (HPC) 103 % of control | endpoint: mean survival time, dose: 400.0 mg/kg/injection, schedule: Q01DX001 (ip), vehicle: Klucel (hydroxypropylcellulose) (HPC) 106 % of control

C=C(C)C1CCC2(COS(=O)(=O)c3ccc(C)cc3)CCC3(C)C(CCC4C5(C)CCC(OC6CCCCO6)C(C)(C)C5CCC43C)C12 (configuration not stated)
inactive: endpoint: mean survival time, dose: 25.0 mg/kg/injection, schedule: Q04DX002 (ip), vehicle: saline with Tween-80 103 % of control | endpoint: mean survival time, dose: 50.0 mg/kg/injection, schedule: Q04DX002 (ip), vehicle: saline with Tween-80 92 % of control

O=C(O)/C(=C\c1cccc([N+](=O)[O-])c1)c1ccccc1
inactive: [4] 97 % of control | endpoint: mean survival time, dose: 100.0 mg/kg/injection, schedule: Q01DX009 (ip), vehicle: saline with Tween-80 91 % of control and 107 % of control | [1] 100 % of control and 105 % of control | endpoint: mean survival time, dose: 100.0 mg/kg/injection, schedule: Q04DX003 (ip), vehicle: saline with Tween-80 100 % of control | [5] 96 % of control | endpoint: mean survival time, dose: 200.0 mg/kg/injection, schedule: Q01DX009 (ip), vehicle: saline with Tween-80 93 % of control | [2] 101 % of control and 103 % of control | endpoint: mean survival time, dose: 200.0 mg/kg/injection, schedule: Q04DX003 (ip), vehicle: saline with Tween-80 100 % of control | [3] 90 % of control and 92 % of control | endpoint: mean survival time, dose: 400.0 mg/kg/injection, schedule: Q04DX003 (ip), vehicle: saline with Tween-80 100 % of control

Cc1cc(Cc2ccccc2)c(O)c(Cc2ccccc2)c1
inactive: endpoint: mean survival time, dose: 100.0 mg/kg/injection, schedule: Q04DX003 (ip), vehicle: other 96 % of control | endpoint: mean survival time, dose: 200.0 mg/kg/injection, schedule: Q04DX003 (ip), vehicle: other 102 % of control | endpoint: mean survival time, dose: 400.0 mg/kg/injection, schedule: Q04DX003 (ip), vehicle: other 94 % of control

O=C(CCCCC(=O)Nc1ccc(C2=NCCN2)cc1)Nc1ccc(C2=NCCN2)cc1
active: endpoint: mean survival time, dose: 75.0 mg/kg/injection, schedule: Q01DX009 (ip), vehicle: saline 168 % of control | endpoint: mean survival time, dose: 150.0 mg/kg/injection, schedule: Q01DX009 (ip), vehicle: saline 216 % of control | endpoint: mean survival time, dose: 300.0 mg/kg/injection, schedule: Q01DX009 (ip), vehicle: saline 236 % of control

CC(=O)CC(C)=O.CC(=O)CC(C)=O.O=N[O-].O=N[O-].[Co]
inactive: endpoint: median survival time, dose: 12.5 mg/kg/injection, schedule: Q01DX009 (ip), vehicle: saline with Tween-80 106 % of control and 108 % of control and 111 % of control | endpoint: median survival time, dose: 25.0 mg/kg/injection, schedule: Q01DX009 (ip), vehicle: saline with Tween-80 118 % of control and 111 % of control and 112 % of control | endpoint: median survival time, dose: 50.0 mg/kg/injection, schedule: Q01DX009 (ip), vehicle: saline with Tween-80 116 % of control and 118 % of control | endpoint: median survival time, dose: 100.0 mg/kg/injection, schedule: Q01DX009 (ip), vehicle: saline with Tween-80 90 % of control
